Measured values reported in US20130338130A1 (priority 2009, published 2013).
Where “and” joins values, the source holds several entries; their conditions need not be identical. Identical values can stand only once. Like-named read-outs stand apart in the source and are kept apart here.

Assays:
[1] = system: ATCC strain 43300 Staphylococcus aureus; conditions: for survival (cfu/ml): triplicate platings
Method: Additional antibiotic was added every 24 hours. The growth periods tested were 24 (FIG. 5), 48, 72, 96 and 120 hours.
USP<51> Antimicrobial Effectiveness protocol was used as the template experimental paradigm. […] All concentrations were plated out to the 10^−7 dilutions to ascertain cfu/ml. […] Additional antibiotic was added at the initial concentration every 24 hours.
ATCC strain 43300 Staphylococcus aureus was streaked out for isolations. An isolated colony was chosen, streaked again and incubated. Isolate was chosen and then diluted to a McFarland standard of one. The estimated value was then taken to inoculate tubes containing growth media and 12, 30 or 60 μg/ml methicillin with approximately 10^5 cfu/ml. These tubes were incubated and plated for counting cfu.
Material was calculated on a 10 ml volume. Sterile methicillin was added to each experimental condition to a final concentration of 12, 30 or 60 μg/ml antibiotic. Lactose Broth positive controls both with and without the 12 μg/ml, 30 μg/ml, 60 μg/ml antibiotic were inoculated with MRSA. […] Tubes were set up in singlet, but plated in triplicate, as described below.
All tubes were then inoculated with a dilution of the selected ATCC strain 43300 Staphylococcus aureus clone giving a final level of colony forming units of 1.49×10^5/ml (log=5.17). The tubes were incubated at 25° C. and mixed periodically. Antibiotic was re-inoculated every 24 hours at the initial concentration to maintain pressure on the organism. Plating was done at 24, 48, 72, and 120 hours. Each condition was plated by diluting 1 ml of growth material into 9 ml of MLB diluent broth. […] This mixture was serial diluted down to 10^−7 with 1 ml placed in triplicate in a sterile petri dish at each dilution point. 20 mls of TSA was added to each dilution, swirled and allowed to solidify. All dilutions were placed in a 35° C. incubator for 24 to 72 hours. Bacterial colonies on each plate were counted and the average taken then changed into log format. […] Graphs were recorded as log of 5.2 for TNTC to show comparison among the other data points.
The tubes were spun down at 5000 rpm for 10 minutes. The supernatant was then decanted into 90 mls of Mueller-Hinton broth with 6 μg/ml methicillin. This is for enrichment and the recovery of any MRSA cells that may be present wether healthy or stressed. The pellet had 10 mls Mueller-Hinton broth with 6 μg/ml methicillin added to it to recover any cells that may be present. Both vessels were incubated at 35° C. for 48 hours and plated each 24 hours. Each vessel was plated at 10 dilutions to obtain a 1 cfu detection limit. Since all vessels were at a 1/10 dilution in the enrichment solution plating each vessel in this manner gave us a detection limit of 1 cfu/ml. […] This time point for graphing purposes will be reported as 0 logs.

[2] = system: ATCC strain 43300 Staphylococcus aureus; conditions: 24 hours; for average log reduction in cfu/ml: MSM (% in label) with antibiotic (12, 30, 60 μg/ml oxacillin or methicillin)
Method: All concentrations were plated out to the 10^−7 dilutions to ascertain cfu/ml.
ATCC strain 43300 Staphylococcus aureus was streaked out for isolations and 25 clones were picked and diluted to a McFarland standard of one. The estimated value was then taken to inoculate tubes containing growth media and 12, 30 or 60 μg/ml methicillin or oxacillin with around 10^−7 cfu/tube.
Material was calculated on a 10 ml volume. Sterile oxacillin or methicillin was added to each experimental condition to a final concentration of 12, 30 or 60 μg/ml antibiotic.
All tubes were then inoculated with a dilution of the selected ATCC strain 43300 Staphylococcus aureus clone giving a final level of colony forming units of 9.4×10^7/ml (log=7.97). The tubes were incubated at 25° C. and mixed periodically. […] Plating was done at 24 hours. Each condition was plated by diluting 1 ml of growth material into 9 ml of MLB diluent broth. This mixture was serial diluted down to 10^−7, and 1 ml placed in a sterile petri dish at each dilution point. 20 mls of TSA was added to each dilution, swirled and allowed to solidify. All dilutions were placed in a 35° C. incubator for 24 hours. Bacterial colonies on each plate were counted and colony counts changed into log format. A positive and negative control was ascertained.

CS(C)(=O)=O [MSM, Methylsulfonylmethane]
average log reduction in colony count ([1]; 12 μg/ml methicillin, all MSM concentrations, 24 hours): 1.5 logs | survival (cfu/ml) ([1]; 30 μg/ml methicillin + MSM (% in label), 24 hours, listed as 5% MSM): 3.8 × 10^2 cfu/ml and 4.1 × 10^2 cfu/ml and 4.0 × 10^2 cfu/ml | survival (cfu/ml) ([1]; 30 μg/ml methicillin + MSM (% in label), 24 hours, listed as 6% MSM): 2.2 × 10^2 cfu/ml and 2.5 × 10^2 cfu/ml | survival (cfu/ml) ([1]; 30 μg/ml methicillin + MSM (% in label), 24 hours, listed as 7% MSM): 3.4 × 10^2 cfu/ml and 3.5 × 10^2 cfu/ml and 3.3 × 10^2 cfu/ml | survival (cfu/ml) ([1]; 30 μg/ml methicillin + MSM (% in label), 24 hours, listed as 8% MSM): 9.4 × 10^2 cfu/ml and 9.6 × 10^2 cfu/ml | survival (cfu/ml) ([1]; 30 μg/ml methicillin + MSM (% in label), 24 hours, listed as 9% MSM): 1.1 × 10^3 cfu/ml and 1.3 × 10^3 cfu/ml and 1.2 × 10^3 cfu/ml | survival (cfu/ml) ([1]; 30 μg/ml methicillin + MSM (% in label), 24 hours, listed as 10% MSM): 1.2 × 10^3 cfu/ml and 1.3 × 10^3 cfu/ml and 1.1 × 10^3 cfu/ml | survival (cfu/ml) ([1]; 30 μg/ml methicillin + MSM (% in label), 24 hours, listed as 11% MSM): 3.3 × 10^3 cfu/ml and 2.8 × 10^3 cfu/ml and 3.1 × 10^3 cfu/ml | survival (cfu/ml) ([1]; 30 μg/ml methicillin + MSM (% in label), 24 hours, listed as 12% MSM): 3.3 × 10^3 cfu/ml | survival (cfu/ml) ([1]; 30 μg/ml methicillin + MSM (% in label), 24 hours, listed as 13% MSM): 6.5 × 10^3 cfu/ml and 6.4 × 10^3 cfu/ml | survival (cfu/ml) ([1]; 30 μg/ml methicillin + MSM (% in label), 24 hours, listed as 14% MSM): 6.3 × 10^3 cfu/ml and 6.7 × 10^3 cfu/ml and 6.9 × 10^3 cfu/ml | survival (cfu/ml) ([1]; 30 μg/ml methicillin + MSM (% in label), 24 hours, listed as 15% MSM): 7.8 × 10^3 cfu/ml and 7.6 × 10^3 cfu/ml and 8.0 × 10^3 cfu/ml | survival (cfu/ml) ([1]; 30 μg/ml methicillin + MSM (% in label), 24 hours, listed as 16% MSM): 9.6 × 10^3 cfu/ml and 9.8 × 10^3 cfu/ml and 9.7 × 10^3 cfu/ml | log reduction in colony count ([1]; 30 μg/ml methicillin, 24 hours): 2.8 log | recovery after enrichment in Mueller-Hinton broth ([1]; 30 μg/ml methicillin, 120 hours, detection limit 1 cfu): true total kill | average log reduction ([1]; 30 μg/ml methicillin, lower end of MSM concentrations, 24 hours): 3 log | survival (cfu/ml) ([1]; 60 μg/ml methicillin + MSM (% in label), 24 hours, listed as 5% MSM): 8.3 × 10^2 cfu/ml and 8.1 × 10^2 cfu/ml | survival (cfu/ml) ([1]; 60 μg/ml methicillin + MSM (% in label), 24 hours, listed as 6% MSM): 4.2 × 10^2 cfu/ml and 4.8 × 10^2 cfu/ml | survival (cfu/ml) ([1]; 60 μg/ml methicillin + MSM (% in label), 24 hours, listed as 7% MSM): 6.1 × 10^2 cfu/ml and 6.3 × 10^2 cfu/ml and 6.2 × 10^2 cfu/ml | survival (cfu/ml) ([1]; 60 μg/ml methicillin + MSM (% in label), 24 hours, listed as 8% MSM): 9.4 × 10^2 cfu/ml and 9.8 × 10^2 cfu/ml and 9.7 × 10^2 cfu/ml | survival (cfu/ml) ([1]; 60 μg/ml methicillin + MSM (% in label), 24 hours, listed as 9% MSM): 2.0 × 10^3 cfu/ml and 1.6 × 10^3 cfu/ml and 1.8 × 10^3 cfu/ml | survival (cfu/ml) ([1]; 60 μg/ml methicillin + MSM (% in label), 24 hours, listed as 10% MSM): 2.2 × 10^3 cfu/ml and 2.1 × 10^3 cfu/ml and 2.0 × 10^3 cfu/ml | survival (cfu/ml) ([1]; 60 μg/ml methicillin + MSM (% in label), 24 hours, listed as 11% MSM): 3.5 × 10^3 cfu/ml and 3.8 × 10^3 cfu/ml and 3.9 × 10^3 cfu/ml | survival (cfu/ml) ([1]; 60 μg/ml methicillin + MSM (% in label), 24 hours, listed as 12% MSM): 4.5 × 10^3 cfu/ml and 4.1 × 10^3 cfu/ml and 4.7 × 10^3 cfu/ml | survival (cfu/ml) ([1]; 60 μg/ml methicillin + MSM (% in label), 24 hours, listed as 13% MSM): 7.0 × 10^3 cfu/ml and 6.8 × 10^3 cfu/ml and 6.5 × 10^3 cfu/ml | survival (cfu/ml) ([1]; 60 μg/ml methicillin + MSM (% in label), 24 hours, listed as 14% MSM): 8.3 × 10^3 cfu/ml and 8.8 × 10^3 cfu/ml and 8.5 × 10^3 cfu/ml | survival (cfu/ml) ([1]; 60 μg/ml methicillin + MSM (% in label), 24 hours, listed as 15% MSM): 8.3 × 10^3 cfu/ml and 8.5 × 10^3 cfu/ml and 8.4 × 10^3 cfu/ml | survival (cfu/ml) ([1]; 60 μg/ml methicillin + MSM (% in label), 24 hours, listed as 16% MSM): 8.4 × 10^3 cfu/ml and 8.5 × 10^3 cfu/ml | log reduction in colony count ([1]; 60 μg/ml methicillin, 48 hours): 4.1 log | recovery after enrichment in Mueller-Hinton broth ([1]; 60 μg/ml methicillin, 72 hours, detection limit 1 cfu/ml): true total kill | colony count ([1]; 60 μg/ml methicillin, 96 hours): TNTC | recovery after enrichment in Mueller-Hinton broth ([1]; 60 μg/ml methicillin, 120 hours, detection limit 1 cfu): true total kill | growth ([1]; positive 5%, 10%, and 16% MSM controls, no antibiotic, 24 hours): signs of turbid growth, was TNTC for all dilutions plated | survival (Log cfu/ml) ([2]; 12 μg/ml methicillin + MSM (% in label), inoculum log=7.97, listed as 5% MSM): 5.43 Log cfu/ml | survival (Log cfu/ml) ([2]; 12 μg/ml methicillin + MSM (% in label), inoculum log=7.97, listed as 6% MSM): 5.2 Log cfu/ml | survival (Log cfu/ml) ([2]; 12 μg/ml methicillin + MSM (% in label), inoculum log=7.97, listed as 7% MSM): 5.46 Log cfu/ml | survival (Log cfu/ml) ([2]; 12 μg/ml methicillin + MSM (% in label), inoculum log=7.97, listed as 8% MSM): 5.0 Log cfu/ml | survival (Log cfu/ml) ([2]; 12 μg/ml methicillin + MSM (% in label), inoculum log=7.97, listed as 9% MSM): 4.99 Log cfu/ml | survival (Log cfu/ml) ([2]; 12 μg/ml methicillin + MSM (% in label), inoculum log=7.97, listed as 10% MSM): 4.8 Log cfu/ml | survival (Log cfu/ml) ([2]; 12 μg/ml methicillin + MSM (% in label), inoculum log=7.97, listed as 11% MSM): 4.87 Log cfu/ml | survival (Log cfu/ml) ([2]; 12 μg/ml methicillin + MSM (% in label), inoculum log=7.97, listed as 12% MSM): 4.89 Log cfu/ml | survival (Log cfu/ml) ([2]; 12 μg/ml methicillin + MSM (% in label), inoculum log=7.97, listed as 13% MSM): 4.77 Log cfu/ml | survival (Log cfu/ml) ([2]; 12 μg/ml methicillin + MSM (% in label), inoculum log=7.97, listed as 14% MSM): 4.7 Log cfu/ml | survival (Log cfu/ml) ([2]; 12 μg/ml oxacillin + MSM (% in label), listed as 5% MSM): 5.28 Log cfu/ml | survival (Log cfu/ml) ([2]; 12 μg/ml oxacillin + MSM (% in label), listed as 6% MSM): 5.26 Log cfu/ml | survival (Log cfu/ml) ([2]; 12 μg/ml oxacillin + MSM (% in label), listed as 7% MSM): 5.18 Log cfu/ml | survival (Log cfu/ml) ([2]; 12 μg/ml oxacillin + MSM (% in label), listed as 8% MSM): 5.18 Log cfu/ml | survival (Log cfu/ml) ([2]; 12 μg/ml oxacillin + MSM (% in label), listed as 9% MSM): 5.16 Log cfu/ml | survival (Log cfu/ml) ([2]; 12 μg/ml oxacillin + MSM (% in label), listed as 10% MSM): 4.96 Log cfu/ml | survival (Log cfu/ml) ([2]; 12 μg/ml oxacillin + MSM (% in label), listed as 11% MSM): 4.8 Log cfu/ml | survival (Log cfu/ml) ([2]; 12 μg/ml oxacillin + MSM (% in label), listed as 12% MSM): 4.8 Log cfu/ml | survival (Log cfu/ml) ([2]; 12 μg/ml oxacillin + MSM (% in label), listed as 13% MSM): 4.9 Log cfu/ml | survival (Log cfu/ml) ([2]; 12 μg/ml oxacillin + MSM (% in label), listed as 14% MSM): 4.88 Log cfu/ml | survival (Log cfu/ml) ([2]; 30 μg/ml methicillin + MSM (% in label), listed as 9% MSM): 5.07 Log cfu/ml | survival (Log cfu/ml) ([2]; 30 μg/ml methicillin + MSM (% in label), listed as 10% MSM): 4.8 Log cfu/ml | survival (Log cfu/ml) ([2]; 30 μg/ml methicillin + MSM (% in label), listed as 11% MSM): 4.8 Log cfu/ml | survival (Log cfu/ml) ([2]; 30 μg/ml methicillin + MSM (% in label), listed as 12% MSM): 4.7 Log cfu/ml | survival (Log cfu/ml) ([2]; 30 μg/ml methicillin + MSM (% in label), listed as 13% MSM): 4.7 Log cfu/ml | survival (Log cfu/ml) ([2]; 30 μg/ml methicillin + MSM (% in label), listed as 14% MSM): 4.6 Log cfu/ml | survival (Log cfu/ml) ([2]; 30 μg/ml methicillin + MSM (% in label), listed as 15% MSM): 4.54 Log cfu/ml | survival (Log cfu/ml) ([2]; 30 μg/ml methicillin + MSM (% in label), listed as 16% MSM): 4.47 Log cfu/ml | survival (Log cfu/ml) ([2]; 30 μg/ml oxacillin + MSM (% in label), listed as 9% MSM): 5.02 Log cfu/ml | survival (Log cfu/ml) ([2]; 30 μg/ml oxacillin + MSM (% in label), listed as 10% MSM): 4.99 Log cfu/ml | survival (Log cfu/ml) ([2]; 30 μg/ml oxacillin + MSM (% in label), listed as 11% MSM): 4.94 Log cfu/ml | survival (Log cfu/ml) ([2]; 30 μg/ml oxacillin + MSM (% in label), listed as 12% MSM): 4.87 Log cfu/ml | survival (Log cfu/ml) ([2]; 30 μg/ml oxacillin + MSM (% in label), listed as 13% MSM): 4.9 Log cfu/ml | survival (Log cfu/ml) ([2]; 30 μg/ml oxacillin + MSM (% in label), listed as 14% MSM): 4.82 Log cfu/ml | survival (Log cfu/ml) ([2]; 30 μg/ml oxacillin + MSM (% in label), listed as 15% MSM): 4.74 Log cfu/ml | survival (Log cfu/ml) ([2]; 30 μg/ml oxacillin + MSM (% in label), listed as 16% MSM): 4.59 Log cfu/ml | average log reduction in cfu/ml ([2]; listed as 5% MSM): 2.2 log | average log reduction in cfu/ml ([2]; listed as 16% MSM): 3.3 log | colony numbers ([2]; MSM without antibiotic control condition): greater colony numbers than what was initially inoculated
